Laboratory results taken from publication PMC11050823, “The Cyclic Imine Core Common to the Marine Macrocyclic Toxins Is Sufficient to Dictate Nicotinic Acetylcholine Receptor Antagonism” (Marine Drugs, 2024).
Read-outs that look alike come from different tables or passages of the source. Marks after values point to notes of the source that are not given here.

Experiments:
[1] = target: Torpedo muscle-type α1_2βγδ nAChR (Torpedo marmorata, UniProt P02711+Q6S3H8+Q6S3H9); experiment: Manual TEVC recording of ACh-evoked currents in Xenopus oocytes micro-transplanted with Torpedo electrocyte membranes; format: cell-based; conditions: concentration-inhibition curve, ACh 25 µM
Source text: (§1) Functional analysis of the (±)-4 racemate and (+)-4 R and (−)-4 S enantiomers used either manual or automated two-electrode voltage-clamp (TEVC) recordings on Xenopus laevis oocytes at −60 mV holding membrane potential. The oocytes were either micro-transplanted with Torpedo α1_2βγδ-enriched electrocyte membranes or transfected with human α7 or α4β2-encoding cDNAs. When applied alone (see Experimental Procedures), none of the three spiroimines induced nAChR channel opening, thereby discarding any agonistic activity toward these nAChR subtypes. Instead, when applied together with ACh at its EC50 concentration for each nAChR subtype, all three spiroimines clearly behaved as nicotinic antagonists, whose potency depended on the receptor subtype examined (Figure 2; Table 1).
(§2) The sources for live animals and biological materials, the procedures for nAChR microtransplantation and expression in oocytes, and the procedures for manual (α1_2βγδ nAChR) and automated (α7 and α4β2 nAChRs) TEVC recording are detailed in Appendix C. […] Then, the oocyte was perfused for 45 s with the tested spiroimine at a given concentration, immediately followed by the co-application of ACh and the spiroimine at the same concentrations and times as indicated above. The oocyte was washed with Ringer’s solution, and then recovery of the ACh-evoked current was recorded.
(§3) The concentration–inhibition curves were analyzed as previously detailed using the equation I = Imax [L]^nH/(EC50^nH + [L]^nH) (Equation (1)), where I is the measured agonist-evoked current, [L] is the agonist concentration, EC50 is the agonist concentration that evoked half the maximal current (I^max), and nH is the Hill coefficient. For antagonist inhibition, current (I) values were normalized to the I^max value recorded from the same oocyte to yield the fractional (%) response data. IC50 values were established from the concentration–response curves by fitting to the equation F = 1/[1 + ([X]/IC50)^nH] (Equation (2)), where F is the fractional response obtained in the presence of the inhibitor at concentration [X], and IC50 is the inhibitor concentration reducing the ACh-evoked amplitude by half. Data analysis was performed without constraints as Log[spiroimine] versus response (three parameters), with a Hill slope ~1. Statistical significance of differences between the control and test values was assessed using either the two-tailed Student’s “t” test or the Kolmogorov–Smirnov two-sample test and p < 0.05.
(§4) Torpedo membranes containing α1_2βγδ nAChR were microtransplanted into the oocyte cytoplasm by microinjecting a membrane suspension (50 nL at 2.5 µg/µL, i.e., 125 ng total protein, in 5 mM glycine) with an electronic micro-injector (Nanoliter2000 Micro4 Controller, World Precision Instruments Inc., Hertfordshire, UK) mounted on a microscope. Human α7 and α4β2 nAChRs were expressed through microinjection, into the oocyte nucleus, of α7 mRNA and of a 1:1 (w/w) mixture of α4 and β2 cDNAs (a ratio favoring expression of the α4_3β2_2 population over the α4_2β2_3 population) (50 nL at 1 µg/µL) in a pRc/CMV expression vector (Invitrogen). Oocytes were maintained at 18 °C and TEVC recordings were performed 1–4 days later in a room with controlled temperature (20 °C).
(§5) Manual TEVC on α1_2βγδ nAChR oocytes was carried out using an OC-725B amplifier (Warner Instrument Corp., Hamden, CT, USA). Voltage and current borosilicate glass microelectrodes were filled with KCl 3 M and had 0.5–1.5 MΩ tip resistances. For data acquisition and recording, a pCLAMP-9/Digidata-1322A system (Molecular Devices, San Jose, CA, USA) was used. The oocyte recording chamber of 300 μL was superfused at a high rate (8–12 mL.min^−1) with a modified oocyte Ringer’s solution made of HEPES 5 mM pH 7.4, NaCl 100 mM, KCl 2.8 mM, and BaCl2 0.3 mM, where BaCl2 substitution to the original CaCl2 prevents secondary activation of a Ca^2+-dependent Cl^− current. […]

[2] = tested on: Torpedo muscle-type α1_2βγδ nAChR; experiment: as above; format: cell-based, Torpedo marmorata; conditions: from IC50 values
Source text: as §1, §2, §3, §4, §5

[3] = target: T1, human neuronal α7 nAChR (Homo sapiens, UniProt P36544); experiment: Automated TEVC recording of ACh-evoked currents in Xenopus oocytes expressing human α7 nAChR; format: cell-based
T1 construct: expressed in transfected cells; host or cells: Xenopus laevis oocytes
Source text: as §1, §2, §3, §4
(§6) Automated TEVC on α7 and α4β2 nAChR oocytes was performed using a HiClamp system (Multi Channel Systems, GmbH., Reutlingen, Germany). Oocytes free of follicular cells were transferred from the 96-wells of the oocyte microplate to a recording basket carrying the reference bath electrode. Oocytes were automatically impaled and clamped at a holding potential of −60 mV using borosilicate glass microelectrodes of 0.5–5 MΩ tip resistances, filled with a 1:1 (v/v) mixture of KCl 1 M and KAc 1 M. The clamped oocytes were exposed twice or thrice to ACh by incubation into a well containing ACh (at the EC50 for the assayed nAChR subtype) to obtain a control IACh peak amplitude. […]

[4] = target: T2, human neuronal α4β2 nAChR (Homo sapiens, UniProt P17787+P43681); experiment: Automated TEVC recording of ACh-evoked currents in Xenopus oocytes expressing human α4β2 nAChR; format: cell-based
T2 construct: expressed in transfected cells; host or cells: Xenopus laevis oocytes; cDNAs in pRc/CMV vector
Source text: as §1, §2, §3, §4, §6

[5] = target: T3, L-AChBP (Lymnaea stagnalis, UniProt P58154); experiment: Stopped-flow Trp fluorescence kinetic and equilibrium binding to purified L-AChBP; conditions: for Kd: L-AChBP
T3 construct: made in house; host or cells: stably transfected HEK293S-GnTI- cells
Method: (§7) Equilibrium dissociation constants were determined either from ratios (Kd/(koff/kon)) of rate constants determined using multiple kinetic means (kon, koff, koff/GAL) or directly from stopped-flow measurements (Kd/SFeq, Kd/SPAeq) (see Experimental Procedures).
(§8) The procedures for stable expression and purification of A- and L-AChBPs are described in Appendix D. Rate constants for association (kon) and dissociation (koff) were determined by multiple kinetic means, largely as previously described. Measurement of kon and koff values entailed the direct admixture of reactants and monitoring the quenching of AChBP native Trp fluorescence. Individual rate constants were determined from linear regression of the experimental mono-exponential decay of Trp fluorescence intensity (kobs) using the linear “approach-to-equilibrium” relationship kobs = kon[spiroimine] + koff (Equation (3)). Additional measurements of koff (koff/GAL) employed stopped-flow measurement of the rate of occupation of free AChBP binding sites by a competing ligand (gallamine, used in large excess relative to its Kd) to form a non-quenching gallamine-AChBP complex. Equilibrium dissociation constants were determined either from the ratios of rate constants (Kd/(koff/kon)), or from stopped-flow measurements of the rates of gallamine or epibatidine binding to pre-equilibrated spiroimine-AChBP complexes formed using increasing spiroimine concentrations (Kd/SFeq), or by the scintillation proximity assay (SPA) where spiroimine competition against the binding of [^3H]epibatidine (to L-AChBP) or [^3H]methyllycaconitine (to A-AChBP) was monitored at equilibrium (Kd/SPAeq). […] The time course of [^3H]ligand binding was monitored over several hours.
(§9) A- and L-AChBP, flanked with an N-terminal FLAG epitope with residues numbered (-8)[…](0), were expressed as soluble, exported proteins using synthetic cDNA and stably-transfected HEK293S-GnTI^− cells selected for G418 resistance, and cultured in Dulbecco’s modified Eagle’s medium (MediaTech CellGro, Albany, NY, USA) containing fetal bovine serum (FBS) 2% (v/v). The conditioned medium was collected every 1–3 days for up to 4 weeks, supplemented with NaN3 0.02% (w/v) and stored at 4 °C. AChBPs were purified on immobilized anti-FLAG M2 antibody (Sigma-Aldrich) with elution using FLAG peptide 100 μg/mL in TRIS-HCl 50 mM pH 7.4, NaCl 150 mM, NaN3 0.02% (w/v). Purified proteins were dialyzed against the same buffer, concentrated by ultrafiltration, filtered on a 0.22 µm membrane, and stored on ice at 4 °C.

[6] = target: T3, L-AChBP; experiment: Scintillation proximity assay, competition against [3H]epibatidine binding to L-AChBP
Method: as §7, §8
(§10) A- and L-AChBP, flanked with an N-terminal FLAG epitope with residues numbered (-8)[…](0), were expressed as soluble, exported proteins using synthetic cDNA and stably-transfected HEK293S-GnTI^− cells selected for G418 resistance, and cultured in Dulbecco’s modified Eagle’s medium (MediaTech CellGro, Albany, NY, USA) containing fetal bovine serum (FBS) 2% (v/v). […]

[7] = target: T4, A-AChBP (Aplysia californica, UniProt Q8WSF8); experiment: Stopped-flow Trp fluorescence kinetic and equilibrium binding to purified A-AChBP
Method: as §7, §8, §9
Target sequence in this assay (Q8WSF8 entry or part of it): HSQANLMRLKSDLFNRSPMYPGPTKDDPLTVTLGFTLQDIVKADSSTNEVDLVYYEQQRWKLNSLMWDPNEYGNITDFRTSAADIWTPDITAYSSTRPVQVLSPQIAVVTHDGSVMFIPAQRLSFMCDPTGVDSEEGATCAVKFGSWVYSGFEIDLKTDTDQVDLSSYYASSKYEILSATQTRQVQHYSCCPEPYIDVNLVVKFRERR

[8] = target: T4, A-AChBP; experiment: Scintillation proximity assay, competition against [3H]methyllycaconitine binding to A-AChBP; set-up: made in house; host or cells: stably transfected HEK293S-GnTI- cells
Method: as §7, §8, §10
Target sequence in this assay (Q8WSF8 entry or part of it): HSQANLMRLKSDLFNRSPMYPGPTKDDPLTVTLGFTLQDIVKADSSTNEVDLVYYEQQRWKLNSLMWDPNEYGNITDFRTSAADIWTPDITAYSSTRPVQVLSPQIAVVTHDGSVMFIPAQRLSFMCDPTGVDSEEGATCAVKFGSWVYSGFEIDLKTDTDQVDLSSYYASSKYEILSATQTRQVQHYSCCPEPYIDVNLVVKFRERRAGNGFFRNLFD

[9] = target: nicotinic acetylcholine receptors; set-up: method as in PMID 35049904; conditions: cited from earlier work

T3 sequence (P58154 20-229): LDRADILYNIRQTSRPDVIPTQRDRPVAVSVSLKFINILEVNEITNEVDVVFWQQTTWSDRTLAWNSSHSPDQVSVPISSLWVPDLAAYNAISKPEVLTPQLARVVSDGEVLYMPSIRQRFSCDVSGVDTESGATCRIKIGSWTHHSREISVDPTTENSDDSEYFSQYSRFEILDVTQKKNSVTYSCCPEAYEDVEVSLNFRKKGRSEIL
T1 sequence (P36544 23-502): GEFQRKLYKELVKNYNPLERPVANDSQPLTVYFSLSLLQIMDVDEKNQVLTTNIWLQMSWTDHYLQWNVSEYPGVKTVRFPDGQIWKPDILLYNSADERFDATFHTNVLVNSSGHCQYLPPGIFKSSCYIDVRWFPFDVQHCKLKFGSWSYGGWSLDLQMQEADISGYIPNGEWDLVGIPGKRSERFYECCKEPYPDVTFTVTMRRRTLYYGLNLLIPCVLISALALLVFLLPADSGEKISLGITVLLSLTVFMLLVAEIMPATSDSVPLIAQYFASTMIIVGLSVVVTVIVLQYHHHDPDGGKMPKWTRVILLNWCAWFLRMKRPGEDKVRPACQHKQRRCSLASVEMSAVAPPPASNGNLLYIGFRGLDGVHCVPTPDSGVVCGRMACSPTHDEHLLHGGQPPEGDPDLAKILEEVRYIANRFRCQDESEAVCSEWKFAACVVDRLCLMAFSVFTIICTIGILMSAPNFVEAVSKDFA
T2 sequence (P43681 29-627 limits assumed): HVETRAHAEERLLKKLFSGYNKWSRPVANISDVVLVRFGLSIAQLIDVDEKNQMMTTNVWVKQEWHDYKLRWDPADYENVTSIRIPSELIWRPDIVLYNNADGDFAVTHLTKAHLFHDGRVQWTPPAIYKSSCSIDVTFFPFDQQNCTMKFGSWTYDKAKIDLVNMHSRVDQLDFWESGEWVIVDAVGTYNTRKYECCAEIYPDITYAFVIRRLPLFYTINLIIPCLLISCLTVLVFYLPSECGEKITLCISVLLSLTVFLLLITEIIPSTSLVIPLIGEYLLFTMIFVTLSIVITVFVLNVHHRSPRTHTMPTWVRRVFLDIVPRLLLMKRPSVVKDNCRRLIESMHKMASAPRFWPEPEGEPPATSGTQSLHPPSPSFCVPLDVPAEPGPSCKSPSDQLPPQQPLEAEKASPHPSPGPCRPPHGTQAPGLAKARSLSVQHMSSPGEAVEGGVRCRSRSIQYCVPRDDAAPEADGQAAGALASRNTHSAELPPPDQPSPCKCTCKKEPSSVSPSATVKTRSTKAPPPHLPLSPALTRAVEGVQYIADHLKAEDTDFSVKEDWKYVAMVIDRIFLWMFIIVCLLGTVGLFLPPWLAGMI
T2 sequence (P17787 26-502): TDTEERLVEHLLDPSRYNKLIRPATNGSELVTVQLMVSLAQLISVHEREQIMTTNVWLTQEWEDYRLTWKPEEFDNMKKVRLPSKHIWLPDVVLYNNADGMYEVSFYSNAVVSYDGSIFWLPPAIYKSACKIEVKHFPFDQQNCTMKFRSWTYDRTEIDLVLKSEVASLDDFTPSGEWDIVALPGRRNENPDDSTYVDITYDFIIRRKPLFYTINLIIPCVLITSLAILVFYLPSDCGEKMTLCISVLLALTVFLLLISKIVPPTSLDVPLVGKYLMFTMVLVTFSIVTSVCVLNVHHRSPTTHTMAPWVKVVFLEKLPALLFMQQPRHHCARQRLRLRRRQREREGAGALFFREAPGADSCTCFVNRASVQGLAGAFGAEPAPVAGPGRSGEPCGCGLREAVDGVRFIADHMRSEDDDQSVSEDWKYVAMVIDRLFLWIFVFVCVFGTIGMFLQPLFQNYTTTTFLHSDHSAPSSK
Torpedo muscle-type α1_2βγδ nAChR (Torpedo marmorata, UniProt P02711+Q6S3H8+Q6S3H9), sequence (P02711 25-461): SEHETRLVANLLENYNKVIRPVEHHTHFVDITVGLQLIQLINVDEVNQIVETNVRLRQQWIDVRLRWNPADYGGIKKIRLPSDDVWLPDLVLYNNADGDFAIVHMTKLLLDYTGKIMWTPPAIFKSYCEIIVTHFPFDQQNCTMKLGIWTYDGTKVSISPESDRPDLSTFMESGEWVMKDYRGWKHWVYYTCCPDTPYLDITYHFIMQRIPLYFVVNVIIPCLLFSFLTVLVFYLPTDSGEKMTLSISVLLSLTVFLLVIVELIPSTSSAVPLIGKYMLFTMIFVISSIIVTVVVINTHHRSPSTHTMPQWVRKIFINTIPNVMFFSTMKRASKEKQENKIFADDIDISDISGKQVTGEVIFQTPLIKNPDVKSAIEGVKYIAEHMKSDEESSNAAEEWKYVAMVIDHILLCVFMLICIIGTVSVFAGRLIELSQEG
Torpedo muscle-type α1_2βγδ nAChR (Torpedo marmorata, UniProt P02711+Q6S3H8+Q6S3H9), sequence (Q6S3H9 18-505): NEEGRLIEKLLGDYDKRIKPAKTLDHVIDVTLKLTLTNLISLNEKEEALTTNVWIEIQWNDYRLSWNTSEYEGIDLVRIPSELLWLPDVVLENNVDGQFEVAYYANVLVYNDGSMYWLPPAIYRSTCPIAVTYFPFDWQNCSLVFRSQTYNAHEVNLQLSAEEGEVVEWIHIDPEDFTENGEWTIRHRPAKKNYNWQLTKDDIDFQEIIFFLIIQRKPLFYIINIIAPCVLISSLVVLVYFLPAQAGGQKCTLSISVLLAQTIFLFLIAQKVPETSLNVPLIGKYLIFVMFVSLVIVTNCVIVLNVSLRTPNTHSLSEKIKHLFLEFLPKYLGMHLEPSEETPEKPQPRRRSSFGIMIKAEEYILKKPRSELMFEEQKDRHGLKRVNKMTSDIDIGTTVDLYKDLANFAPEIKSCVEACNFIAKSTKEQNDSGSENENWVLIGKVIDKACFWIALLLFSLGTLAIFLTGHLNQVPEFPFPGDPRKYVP
Torpedo muscle-type α1_2βγδ nAChR (Torpedo marmorata, UniProt P02711+Q6S3H8+Q6S3H9), sequence (Q6S3H8 22-522): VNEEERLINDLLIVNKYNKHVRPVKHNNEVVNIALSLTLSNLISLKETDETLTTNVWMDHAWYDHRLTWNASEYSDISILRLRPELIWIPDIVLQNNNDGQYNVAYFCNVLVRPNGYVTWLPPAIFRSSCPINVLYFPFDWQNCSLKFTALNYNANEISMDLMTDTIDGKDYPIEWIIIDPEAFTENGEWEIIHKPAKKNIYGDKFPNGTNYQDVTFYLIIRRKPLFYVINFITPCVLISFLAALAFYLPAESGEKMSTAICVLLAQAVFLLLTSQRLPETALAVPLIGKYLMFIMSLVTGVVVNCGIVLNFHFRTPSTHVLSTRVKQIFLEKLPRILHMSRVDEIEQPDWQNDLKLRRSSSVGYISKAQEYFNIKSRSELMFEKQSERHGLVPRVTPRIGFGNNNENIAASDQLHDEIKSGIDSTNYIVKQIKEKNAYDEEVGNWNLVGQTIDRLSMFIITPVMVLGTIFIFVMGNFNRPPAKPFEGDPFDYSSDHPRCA
Torpedo muscle-type α1_2βγδ nAChR (Torpedo marmorata, UniProt P02711+Q6S3H8+Q6S3H9), sequence (Q6S3I0 25-493 partner): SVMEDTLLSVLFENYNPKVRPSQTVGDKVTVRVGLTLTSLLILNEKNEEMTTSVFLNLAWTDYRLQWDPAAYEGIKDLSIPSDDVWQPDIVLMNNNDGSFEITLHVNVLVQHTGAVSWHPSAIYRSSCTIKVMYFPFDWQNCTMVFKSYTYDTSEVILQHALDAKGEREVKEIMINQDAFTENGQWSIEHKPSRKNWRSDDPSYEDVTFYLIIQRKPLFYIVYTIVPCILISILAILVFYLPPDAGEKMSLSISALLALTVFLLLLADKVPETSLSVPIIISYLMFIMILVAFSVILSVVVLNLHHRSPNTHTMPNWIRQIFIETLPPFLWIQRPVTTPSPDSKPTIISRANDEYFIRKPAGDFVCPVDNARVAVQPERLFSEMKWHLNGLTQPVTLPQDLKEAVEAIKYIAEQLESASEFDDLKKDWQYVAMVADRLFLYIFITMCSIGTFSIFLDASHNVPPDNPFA

In the case of CC1=NCCC[C@]12CCCCC21OCCO1 [Spiroimine (+)-4 R, 7-methyl-1,4-dioxa-8-azadispiro[4.0.5.4]pentadec-7-ene], the “Hill Slope” value [1] is reported as ~1 ^b, the “selectivity for the α1_2βγδ nAChR compared with the α4β2 subtype” value [2] is reported as 25 fold and the “selectivity for the α1_2βγδ nAChR compared with the α7 subtype” value [2] is reported as 13 fold. For the same compound, the “Hill Slope” value ([3]; concentration-inhibition curve, ACh 100 µM, 95% confidence interval in parentheses) was 0.78 (0.54–1.01) ^b, the IC50 ([3]; inhibition of ACh-evoked current, ACh 100 µM (EC50), −60 mV, 95% confidence interval in parentheses) was 4.88 µM and the “higher affinity compared with the (−)-4 S enantiomer” value ([3]; α7 nAChR, from Table 1) was “ca. 5 fold”. For the same compound, the “recovery of the ACh-evoked current after washout of bound spiroimine” value ([4]; 10 µM spiroimine, wash) was “fast and complete”, the “Hill Slope” value ([4]; concentration-inhibition curve, ACh 150 µM, 95% confidence interval in parentheses) was 0.83 (0.15–1.52) ^b and the IC50 ([4]; inhibition of ACh-evoked current, ACh 150 µM (EC50), −60 mV, 95% confidence interval in parentheses) was 9.31 µM. For the same compound, the “agonistic activity (nAChR channel opening)” value ([4]; spiroimine applied alone) was “elicited no inward current per se”, the “higher affinity compared with the (−)-4 S enantiomer” value ([4]; α4β2 nAChR, from Table 1) was “ca. 5 fold” and the “higher affinity compared to enantiomer (−)-4 S” value ([5]; L-AChBP (text: the two AChBPs)) was “ca. 2 fold”. For the same compound, the Kd ([5]; stopped-flow on pre-equilibrated complexes, single experiment in triplicate, read-out: Kd/SFeq) was 12 µM, the Kd ([5]; read-out: Kd values (range of magnitude)) was about 10 µM and the Kd [6] was 12 ± 3 µM. The “higher affinity compared to enantiomer (−)-4 S” value ([7]; A-AChBP (text: the two AChBPs)) was “ca. 2 fold”, the kon ([7]; A-AChBP, quenching of native Trp fluorescence) was 1.23e+08 M⁻¹ s⁻¹ and the koff ([7]; A-AChBP, quenching of native Trp fluorescence, read-out: koff (converted)) was 267 s⁻¹. For the same compound, the koff ([7]; A-AChBP, stopped-flow with competing gallamine in large excess, read-out: koff/GAL (converted)) was 233 s⁻¹, the Kd ([7]; Kd/(koff/kon), A-AChBP, calculated from the rate constants) was 2.2 µM and the Kd ([7]; Kd/SFeq, A-AChBP, stopped-flow on pre-equilibrated complexes, single experiment in triplicate) was 3.1 µM. It also gave a Kd [8] of 2.3 ± 0.4 µM.

For CN(C)C1CSSC1 [nereistoxin, N,N-dimethyl-1,2-dithiolan-4-amine], the “IC50 values as nicotinic antagonist” value [9] is given as “sub-millimolar”.
